Values of other authors in patent publication US20070213265A1, “Kunitz-type sequences and polypeptides” (Novo Nordisk A/S, priority 2001, published 2007).

Columns and labels:
[1] = high doses; cardiac surgery, including cardiopulmonary bypass operations
plasma kallikrein = plasma kallikrein (Homo sapiens, UniProt P03952)
granulocyte elastase = granulocyte elastase (Homo sapiens, UniProt P08246)
Sequence of granulocyte elastase (P08246 30-267): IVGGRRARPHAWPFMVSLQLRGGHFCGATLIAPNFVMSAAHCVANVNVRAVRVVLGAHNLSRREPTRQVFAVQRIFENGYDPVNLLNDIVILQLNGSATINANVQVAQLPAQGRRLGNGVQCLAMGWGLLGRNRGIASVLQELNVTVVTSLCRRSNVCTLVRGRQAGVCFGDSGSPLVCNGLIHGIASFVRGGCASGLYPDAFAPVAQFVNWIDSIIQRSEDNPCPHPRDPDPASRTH

Sequence of plasma kallikrein (P03952 20-638, species assumed): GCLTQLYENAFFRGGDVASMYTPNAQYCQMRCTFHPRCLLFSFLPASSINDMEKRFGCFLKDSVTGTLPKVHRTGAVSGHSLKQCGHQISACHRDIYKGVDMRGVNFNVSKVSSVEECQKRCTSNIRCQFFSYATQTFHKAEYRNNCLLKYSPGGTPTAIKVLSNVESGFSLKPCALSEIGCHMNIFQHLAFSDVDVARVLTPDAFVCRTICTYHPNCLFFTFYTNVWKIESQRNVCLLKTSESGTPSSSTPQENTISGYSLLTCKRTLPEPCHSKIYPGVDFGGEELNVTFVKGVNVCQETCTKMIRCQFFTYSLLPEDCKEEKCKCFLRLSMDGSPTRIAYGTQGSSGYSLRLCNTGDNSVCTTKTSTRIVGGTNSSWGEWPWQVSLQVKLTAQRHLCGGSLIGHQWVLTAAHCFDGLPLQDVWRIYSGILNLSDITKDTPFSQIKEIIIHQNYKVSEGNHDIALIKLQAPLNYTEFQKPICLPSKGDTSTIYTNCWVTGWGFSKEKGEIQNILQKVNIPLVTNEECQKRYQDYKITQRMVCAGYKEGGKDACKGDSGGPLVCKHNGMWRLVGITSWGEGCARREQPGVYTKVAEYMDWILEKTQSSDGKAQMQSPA

For Aprotinin (1-58, Ala15), the effect on elastase (elastase) is listed as “weak effect”.

In the case of aprotinin, the blood loss [1] is given as “significantly reduces blood loss”.

For aprotinin (3-58, Arg15, Ala17, Ser42), the “plasma kallikrein inhibitory effect” value (plasma kallikrein) is given as “excellent”.

In the case of aprotinin(1-58, Val15), the “inhibitory effect on collagenase” value (collagenase) is given as “inhibitory effect” and the “selectivity for granulocyte elastase” value (granulocyte elastase) is given as “relatively high selectivity”.
